This is an account of results in patent US8754071B2 (priority 2011, dated 2014).

SMILES strings stand for the structures.

T1 sequence (P10721 26-976): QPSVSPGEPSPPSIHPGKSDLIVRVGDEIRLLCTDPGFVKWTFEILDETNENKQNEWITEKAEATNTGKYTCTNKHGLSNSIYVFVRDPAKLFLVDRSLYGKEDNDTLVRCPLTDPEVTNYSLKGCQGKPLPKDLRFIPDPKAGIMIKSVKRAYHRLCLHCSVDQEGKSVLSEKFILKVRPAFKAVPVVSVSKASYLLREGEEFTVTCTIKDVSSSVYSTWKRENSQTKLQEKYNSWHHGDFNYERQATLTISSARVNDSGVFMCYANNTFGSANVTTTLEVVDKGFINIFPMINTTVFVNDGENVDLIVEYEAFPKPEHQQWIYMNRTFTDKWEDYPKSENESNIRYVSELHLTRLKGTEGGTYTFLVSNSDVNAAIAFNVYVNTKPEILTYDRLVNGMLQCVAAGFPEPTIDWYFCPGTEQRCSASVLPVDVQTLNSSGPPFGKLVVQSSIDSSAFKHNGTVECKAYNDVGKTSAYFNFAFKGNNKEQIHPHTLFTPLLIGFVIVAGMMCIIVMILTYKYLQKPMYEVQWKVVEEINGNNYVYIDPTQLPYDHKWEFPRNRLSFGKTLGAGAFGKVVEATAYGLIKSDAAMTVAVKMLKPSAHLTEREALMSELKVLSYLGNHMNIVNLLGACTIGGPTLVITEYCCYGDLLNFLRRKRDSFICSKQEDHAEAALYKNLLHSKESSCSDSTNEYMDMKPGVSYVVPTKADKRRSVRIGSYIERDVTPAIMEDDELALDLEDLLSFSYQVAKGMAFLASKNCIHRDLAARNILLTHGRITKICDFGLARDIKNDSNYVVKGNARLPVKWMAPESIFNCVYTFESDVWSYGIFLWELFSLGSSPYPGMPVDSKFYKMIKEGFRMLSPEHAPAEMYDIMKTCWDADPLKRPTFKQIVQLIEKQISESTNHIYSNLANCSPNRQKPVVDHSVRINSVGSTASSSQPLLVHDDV

The first experiment concerns the target T1, c-kit (Homo sapiens, UniProt P10721).
T1 construct: human Mo7e cells which endogenously express c-kit; endogenous in cells; host or cells: human Mo7e cells (promegakaryocytic leukemia line), stimulated with human recombinant SCF
The experiment can be described thus: Mo7e cell proliferation assay (SCF dependent proliferation). As to conditions: Table 2; human Mo7e cells stimulated with SCF, 48 hours, CellTiter Glo; 1% FBS; read-out: c-kit (Mo7e). The class given is cell-based. In a few lines: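 Human Mo7e cells with endogenous c-kit, proliferation driven by SCF, 384-well format. After 48 h at 37 °C viability read by CellTiter-Glo luminescence. IC50 taken as concentration giving response halfway between baseline and maximum.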
In general terms: ATP-based viability assays read luminescence as a measure of living cells.
As for `Cc1ccc(-c2noc(C3(C)CN(C(=O)OC(C)(C)C)C3)n2)cc1NC(=O)c1cnc2ccccn12` [F239], the IC50 turned out to be 831 nM. Still for that read-out and setting: under `COC(=O)N1CC(C)(c2nc(-c3ccc(C)c(NC(=O)c4cnc5ccccn45)c3)no2)C1` [F240] stands 249 nM; under `COC(=O)N1CC(c2nc(-c3ccc(C)c(NC(=O)c4cnc5ccc(CCC(=O)OC(C)(C)C)cn45)c3)no2)C1` [F241], 115 nM.

`COC(=O)N1CC(c2nc(-c3ccc(C)c(NC(=O)c4cnc5c(F)cccn45)c3)no2)C1` [F242]: the IC50 was found to be 812 nM. `Cc1ccc(-c2noc(C3CN(c4cnccn4)C3)n2)cc1NC(=O)c1cnc2ccccn12` [F243]: the IC50 amounted to 310 nM. Still for that read-out and setting: under `Cc1nc(N2CC(c3nc(-c4ccc(C)c(NC(=O)c5cnc6ccccn56)c4)no3)C2)no1` [F244] stands 176 nM. The same measure, in the same setting: then `COC(=O)N1CC(c2nc(-c3ccc(C)c(NC(=O)c4cnc5ccc(C(C)=O)cn45)c3)no2)C1` [F245], with 178 nM; and `COC(=O)N1CC(c2nc(-c3ccc(C)c(NC(=O)c4cnc5ccc(C(C)(C)O)cn45)c3)no2)C1` [F246], with 317 nM. On to `COC(=O)N1CC(c2nc(-c3ccc(C)c(NC(=O)c4cnc5ccc(CC(C)(C)O)cn45)c3)no2)C1` [F247], for which the IC50 is 328 nM.

Regarding `Cc1ccc(-c2noc(N3CCC3)n2)cc1NC(=O)c1cnc2ccccn12` [F248], the IC50 is 132 nM. On the same count and under the same terms, under `COC(=O)N1CC(c2nc(-c3ccc(C)c(NC(=O)c4cnc5ccccn45)c3C)no2)C1` [F249] stands 426 nM; under `COC(=O)N1CC(c2nc(-c3ccc(C)c(NC(=O)c4cnc5cc(N6CCOC6=O)ccn45)c3)no2)C1` [F250], 114 nM; under `Cc1ccc(-c2nc(N3CC(C)(O)C3)no2)cc1NC(=O)c1cnc2ccccn12` [F251], 157 nM. With `COC(=O)N1CC(c2nc(-c3ccc(C)c(NC(=O)c4cnc5ccc(-n6ccnc6)cn45)c3)no2)C1` [F252], the IC50 was determined as 421 nM. Same read-out and setting: under `COCc1n[nH]c(-c2ccc3ncc(C(=O)Nc4cc(-c5noc(C6CN(C(=O)OC)C6)n5)ccc4C)n3c2)n1` [F253] stands 215 nM. Consider `COC1CN(c2nc(-c3ccc(C)c(NC(=O)c4cnc5cc(C)ccn45)c3)no2)C1` [F254], for which the IC50 is 111 nM. The same measure, in the same setting: then `Cc1ccn2c(C(=O)Nc3cc(-c4noc(N5CCN6C(=O)OC[C@@H]6C5)n4)ccc3C)cnc2c1` [F255], with 129 nM. Still for that read-out and setting: then `Cc1ccc(-c2noc(CN3CC(C#N)C3)n2)cc1NC(=O)c1cnc2ccc(-c3cnn(C)c3)cn12` [F256], with 106 nM; and `Cc1ccc(-c2noc(C3CN(C(=O)OCC(F)F)C3)n2)cc1NC(=O)c1cnc2ccccn12` [F259], with 177 nM; and `Cc1ccc2ncc(C(=O)Nc3cc(-c4noc(COC5COC5)n4)ccc3C)n2c1` [F260], with 205 nM. Still for that read-out and setting: under `Cc1ccc2ncc(C(=O)Nc3cc(-c4noc(C5CCN5C(=O)OC(C)(C)C)n4)ccc3C)n2c1` (stereo not drawn) [F261] stands 291 nM; under `COC(=O)N1CC[C@H]1c1nc(-c2ccc(C)c(NC(=O)c3cnc4ccc(C)cn34)c2)no1` [F262], 309 nM. For the compound `Cc1ccc(-c2noc(C3CCO3)n2)cc1NC(=O)c1cnc2ccccn12` (stereo not drawn) [F263], the IC50 came to 350 nM.

As for `Cc1ccc(-c2noc(C3CN(C(=O)OCC(F)(F)F)C3)n2)cc1NC(=O)c1cnc2ccccn12` [F264], the IC50 was 438 nM. Regarding `COC(=O)N1CC(c2nc(-c3ccc(C)c(NC(=O)c4cnc5ccc(CO)cn45)c3)no2)C1` [F266], the IC50 was 523 nM. Same read-out and setting: under `Cc1ccc2ncc(C(=O)Nc3cc(-c4noc(COC5CN(C(=O)OC(C)(C)C)C5)n4)ccc3C)n2c1` [F267] stands 650 nM. `CC(=O)N1CCC[C@@H]1c1nc(-c2ccc(C)c(NC(=O)c3cnc4ccccn34)c2)no1` [F269]: the IC50 stood at 1010 nM.

Regarding `Cc1ccc(-c2noc(CNC(=O)CC3CCOCC3)n2)cc1NC(=O)c1cnc2ccccn12` [F270], the IC50 came out at 1040 nM. On the same count and under the same terms, then `CCN1CC(c2nc(-c3ccc(C)c(NC(=O)c4cnc5ccccn45)c3)no2)C1` [F271], with 1120 nM; and `Cc1ccc(-c2noc(C3C[C@@H](O)CN3S(C)(=O)=O)n2)cc1NC(=O)c1cnc2ccc(F)cn12` (stereo partly drawn) [F272], with 1140 nM. Still for that read-out and setting: then `Cc1ccc(-c2noc([C@H]3C[C@@H](O)CN3S(C)(=O)=O)n2)cc1NC(=O)c1cnc2ccc(F)cn12` [F273], with 1170 nM; and `Cc1ccc(-c2noc(C3CCCNC3)n2)cc1NC(=O)c1cnc2ccccn12` (stereo not drawn) [F274], with 1200 nM; and `CC(=O)N1CCOC[C@H]1c1nc(-c2ccc(C)c(NC(=O)c3cnc4ccccn34)c2)no1` [F275], with 1230 nM. On the same count and under the same terms, under `Cc1ccc(-c2noc([C@@H]3COCCN3)n2)cc1NC(=O)c1cnc2ccccn12` [F276] stands 1240 nM; under `Cc1ccc(-c2noc(C3CN(C(=O)OC(C)(C)C)CCO3)n2)cc1NC(=O)c1cnc2ccccn12` (stereo not drawn) [F277], 1250 nM; under `Cc1ccc(-c2noc([C@H]3CCCN3C(=O)OC(C)(C)C)n2)cc1NC(=O)c1cnc2ccccn12` [F278], 1280 nM. Turning to `Cc1cc(F)c(-c2noc(C3CN(C(=O)OC(C)(C)C)C3)n2)cc1NC(=O)c1cnc2ccccn12` [F279], the IC50 turned out to be 1280 nM. The same measure, in the same setting: under `Cc1ccc2ncc(C(=O)Nc3cc(-c4noc([C@@H]5CCN5)n4)ccc3C)n2c1` [F280] stands 1310 nM. On the same count and under the same terms, under `Cc1ccn2c(C(=O)Nc3cc(-c4noc(N5CC(S(C)(=O)=O)C5)n4)ccc3C)cnc2c1` [F281] stands 1370 nM.

Turning to `Cc1ccc(-c2noc(CC3CN(C(=O)OC(C)(C)C)C3)n2)cc1NC(=O)c1cnc2ccccn12` [F283], the IC50 came to 1630 nM. Consider `Cc1ccc(-c2noc(C[C@H]3CCNC3)n2)cc1NC(=O)c1cnc2ccccn12` [F284], for which the IC50 stood at 1650 nM. `Cc1ccc(-c2noc(C3CCCNC3)n2)cc1NC(=O)c1cnc2ccccn12` (stereo not drawn) [F285]: the IC50 came to 1670 nM. Same read-out and setting: under `Cc1ccc(-c2noc(C3(N)COC3)n2)cc1NC(=O)c1cnc2ccccn12` [F286] stands 1680 nM. Still for that read-out and setting: then `Cc1ccc(-c2noc([C@@H]3C[C@H](O)CN3S(C)(=O)=O)n2)cc1NC(=O)c1cnc2ccc(F)cn12` [F287], with 1680 nM; and `Cc1ccc(-c2noc(CC3CCNCC3)n2)cc1NC(=O)c1cnc2ccccn12` [F289], with 1880 nM; and `Cc1ccc(-c2noc(C3CCNCC3)n2)cc1NC(=O)c1cnc2ccccn12` [F290], with 1890 nM. As for `Cc1ccc(-c2noc(CN3CC(S(C)(=O)=O)C3)n2)cc1NC(=O)c1cnc2ccccn12` [F291], the IC50 came to 1920 nM. With `Cc1ccc(-c2noc(CNC(=O)N3CCOCC3)n2)cc1NC(=O)c1cnc2ccccn12` [F292], the IC50 turned out to be 1930 nM. As for `Cc1ccc2ncc(C(=O)Nc3cc(-c4noc(COC5CNC5)n4)ccc3C)n2c1` [F293], the IC50 turned out to be 2150 nM. Consider `Cc1ccc(-c2nc(N3CC4(COC4)C3)no2)cc1NC(=O)c1cnc2ccccn12` [F294], for which the IC50 was 2200 nM. In the case of `Cc1ccc(-c2noc(CC3CNC3)n2)cc1NC(=O)c1cnc2ccccn12` [F295], the IC50 stood at 2200 nM. For `Cc1ccc(-c2noc(C3CCNC3)n2)cc1NC(=O)c1cnc2ccccn12` (stereo not drawn) [F296], the IC50 came out at 2440 nM.

The experiment is the same for the next values; noted with them: Table 2; values marked *: 20% FBS instead of 1% FBS; read-out: c-kit (Mo7e).
With `Cc1ccc(-c2noc(C3CCCN(C(=O)OC(C)(C)C)C3)n2)cc1NC(=O)c1cnc2ccccn12` (stereo not drawn) [F282], the IC50 was 1600 nM.

For `Cc1ccc(-c2noc(C3CCCCN3C(=O)OC(C)(C)C)n2)cc1NC(=O)c1cnc2ccccn12` (stereo not drawn) [F288], the IC50 was determined as 1780 nM.
